Values quoted from earlier work as cited in paper PMC9851200, “Multiparameter phenotypic screening for endogenous TFEB and TFE3 translocation identifies novel chemical series modulating lysosome function” (Autophagy, 2022).

Key:
Parameters in all cases: method as in original PKIS2 published data
[1] = molecular target: T1, kinases (KINOMEscan panel) (Homo sapiens, UniProt O14730); conditions: RIOK3; Published KINOMEscan; ref original PKIS2 published data; cited from earlier work
T1 sequence (O14730 1-519): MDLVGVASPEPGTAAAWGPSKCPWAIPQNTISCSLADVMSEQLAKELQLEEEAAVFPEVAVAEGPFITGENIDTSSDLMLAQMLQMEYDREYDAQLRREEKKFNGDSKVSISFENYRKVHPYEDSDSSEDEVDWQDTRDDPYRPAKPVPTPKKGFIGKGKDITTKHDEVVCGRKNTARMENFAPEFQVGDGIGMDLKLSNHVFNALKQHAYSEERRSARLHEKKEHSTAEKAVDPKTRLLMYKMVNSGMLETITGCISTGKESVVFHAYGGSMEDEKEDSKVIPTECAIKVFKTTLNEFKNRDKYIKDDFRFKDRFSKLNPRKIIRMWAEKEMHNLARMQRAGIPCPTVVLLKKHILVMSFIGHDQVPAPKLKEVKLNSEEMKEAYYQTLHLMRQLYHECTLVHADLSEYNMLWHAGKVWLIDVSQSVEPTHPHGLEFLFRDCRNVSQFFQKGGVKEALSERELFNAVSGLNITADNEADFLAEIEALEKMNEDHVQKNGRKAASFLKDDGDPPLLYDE

[2] = molecular target: kinases (KINOMEscan panel) (Homo sapiens, UniProt O43353); conditions: RIPK2; Published KINOMEscan; ref original PKIS2 published data; cited from earlier work
Sequence of kinases (KINOMEscan panel) (Homo sapiens, UniProt O43353) (O43353 whole entry): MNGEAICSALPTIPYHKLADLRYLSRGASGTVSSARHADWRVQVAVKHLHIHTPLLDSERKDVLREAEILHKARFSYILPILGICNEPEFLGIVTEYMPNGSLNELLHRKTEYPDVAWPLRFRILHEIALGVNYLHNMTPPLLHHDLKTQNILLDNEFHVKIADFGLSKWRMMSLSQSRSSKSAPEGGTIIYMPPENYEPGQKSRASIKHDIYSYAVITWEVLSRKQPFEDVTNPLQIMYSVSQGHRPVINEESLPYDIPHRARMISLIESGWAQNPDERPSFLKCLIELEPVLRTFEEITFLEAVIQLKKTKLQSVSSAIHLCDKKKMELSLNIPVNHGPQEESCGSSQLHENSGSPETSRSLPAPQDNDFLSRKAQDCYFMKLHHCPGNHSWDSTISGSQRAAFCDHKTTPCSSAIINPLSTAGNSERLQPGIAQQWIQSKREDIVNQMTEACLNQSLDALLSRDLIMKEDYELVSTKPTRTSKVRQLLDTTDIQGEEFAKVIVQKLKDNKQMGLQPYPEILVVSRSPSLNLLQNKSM

[3] = molecular target: kinases (KINOMEscan panel) (Homo sapiens, UniProt O43683); conditions: kinase BUB1; Published KINOMEscan; ref original PKIS2 published data; cited from earlier work
Sequence of kinases (KINOMEscan panel) (Homo sapiens, UniProt O43683) (O43683 whole entry): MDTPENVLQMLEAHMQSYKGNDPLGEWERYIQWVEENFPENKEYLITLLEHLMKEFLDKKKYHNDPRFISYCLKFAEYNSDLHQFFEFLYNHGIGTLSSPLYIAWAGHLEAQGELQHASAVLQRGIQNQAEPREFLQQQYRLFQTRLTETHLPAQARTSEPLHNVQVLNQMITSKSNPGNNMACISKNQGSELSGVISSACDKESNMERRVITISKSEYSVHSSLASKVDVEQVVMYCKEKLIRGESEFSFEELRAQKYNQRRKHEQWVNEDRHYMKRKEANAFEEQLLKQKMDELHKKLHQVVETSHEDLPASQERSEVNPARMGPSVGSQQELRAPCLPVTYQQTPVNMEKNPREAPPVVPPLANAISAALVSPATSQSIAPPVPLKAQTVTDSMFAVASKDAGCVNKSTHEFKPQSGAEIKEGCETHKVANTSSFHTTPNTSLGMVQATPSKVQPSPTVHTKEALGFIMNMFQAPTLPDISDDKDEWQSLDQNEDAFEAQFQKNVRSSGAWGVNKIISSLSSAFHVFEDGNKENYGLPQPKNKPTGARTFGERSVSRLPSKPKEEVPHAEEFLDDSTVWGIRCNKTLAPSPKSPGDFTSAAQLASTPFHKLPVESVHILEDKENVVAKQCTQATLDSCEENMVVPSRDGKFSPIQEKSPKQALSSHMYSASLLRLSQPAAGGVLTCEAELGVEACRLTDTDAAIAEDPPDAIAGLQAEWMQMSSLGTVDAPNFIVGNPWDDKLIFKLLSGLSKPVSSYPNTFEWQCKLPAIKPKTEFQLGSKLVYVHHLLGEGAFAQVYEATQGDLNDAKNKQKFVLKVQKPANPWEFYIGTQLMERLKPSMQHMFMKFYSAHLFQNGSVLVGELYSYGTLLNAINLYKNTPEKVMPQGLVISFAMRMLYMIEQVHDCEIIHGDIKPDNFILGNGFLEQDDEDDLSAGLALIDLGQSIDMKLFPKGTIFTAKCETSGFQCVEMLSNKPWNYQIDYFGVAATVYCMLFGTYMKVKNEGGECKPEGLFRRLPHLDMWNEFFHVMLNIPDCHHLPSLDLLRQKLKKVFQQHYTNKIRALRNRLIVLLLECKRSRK

[4] = molecular target: kinases (KINOMEscan panel) (Homo sapiens, UniProt O95747); conditions: Published KINOMEscan; ref original PKIS2 published data; cited from earlier work
Sequence of kinases (KINOMEscan panel) (Homo sapiens, UniProt O95747) (O95747 whole entry): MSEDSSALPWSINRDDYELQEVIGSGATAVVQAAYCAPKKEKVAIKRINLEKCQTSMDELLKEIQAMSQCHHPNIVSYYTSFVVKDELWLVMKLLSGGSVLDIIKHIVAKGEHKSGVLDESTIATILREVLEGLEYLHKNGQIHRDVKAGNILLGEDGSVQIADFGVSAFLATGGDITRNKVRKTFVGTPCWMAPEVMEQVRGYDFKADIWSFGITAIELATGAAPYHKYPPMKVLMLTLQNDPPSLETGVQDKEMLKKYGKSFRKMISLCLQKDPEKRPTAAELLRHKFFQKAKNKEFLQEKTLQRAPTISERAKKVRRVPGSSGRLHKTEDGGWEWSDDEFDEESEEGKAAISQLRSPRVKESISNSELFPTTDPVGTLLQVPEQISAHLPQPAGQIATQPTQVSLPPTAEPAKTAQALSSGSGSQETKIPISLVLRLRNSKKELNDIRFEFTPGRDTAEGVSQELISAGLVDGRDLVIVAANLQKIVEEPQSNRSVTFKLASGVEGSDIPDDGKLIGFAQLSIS

[5] = molecular target: kinases (KINOMEscan panel) (Homo sapiens, UniProt P07948); conditions: Published KINOMEscan; ref original PKIS2 published data; cited from earlier work
Sequence of kinases (KINOMEscan panel) (Homo sapiens, UniProt P07948) (P07948 whole entry): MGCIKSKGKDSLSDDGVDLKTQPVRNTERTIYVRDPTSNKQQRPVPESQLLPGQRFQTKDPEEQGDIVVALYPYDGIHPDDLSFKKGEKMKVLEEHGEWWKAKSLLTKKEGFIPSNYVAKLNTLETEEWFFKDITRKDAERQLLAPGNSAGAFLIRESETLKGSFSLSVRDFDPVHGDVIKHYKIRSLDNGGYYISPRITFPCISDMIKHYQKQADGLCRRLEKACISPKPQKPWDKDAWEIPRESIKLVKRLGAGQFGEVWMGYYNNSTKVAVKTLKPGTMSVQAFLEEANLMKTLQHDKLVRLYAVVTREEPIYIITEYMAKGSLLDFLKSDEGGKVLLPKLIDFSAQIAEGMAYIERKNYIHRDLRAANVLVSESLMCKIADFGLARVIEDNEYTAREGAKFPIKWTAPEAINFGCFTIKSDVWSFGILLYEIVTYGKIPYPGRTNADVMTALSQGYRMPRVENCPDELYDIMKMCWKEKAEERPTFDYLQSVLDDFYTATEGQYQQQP

[6] = molecular target: T2, kinases (KINOMEscan panel) (Homo sapiens, UniProt P20794); conditions: Published KINOMEscan; ref original PKIS2 published data; cited from earlier work
T2 sequence (P20794 1-623): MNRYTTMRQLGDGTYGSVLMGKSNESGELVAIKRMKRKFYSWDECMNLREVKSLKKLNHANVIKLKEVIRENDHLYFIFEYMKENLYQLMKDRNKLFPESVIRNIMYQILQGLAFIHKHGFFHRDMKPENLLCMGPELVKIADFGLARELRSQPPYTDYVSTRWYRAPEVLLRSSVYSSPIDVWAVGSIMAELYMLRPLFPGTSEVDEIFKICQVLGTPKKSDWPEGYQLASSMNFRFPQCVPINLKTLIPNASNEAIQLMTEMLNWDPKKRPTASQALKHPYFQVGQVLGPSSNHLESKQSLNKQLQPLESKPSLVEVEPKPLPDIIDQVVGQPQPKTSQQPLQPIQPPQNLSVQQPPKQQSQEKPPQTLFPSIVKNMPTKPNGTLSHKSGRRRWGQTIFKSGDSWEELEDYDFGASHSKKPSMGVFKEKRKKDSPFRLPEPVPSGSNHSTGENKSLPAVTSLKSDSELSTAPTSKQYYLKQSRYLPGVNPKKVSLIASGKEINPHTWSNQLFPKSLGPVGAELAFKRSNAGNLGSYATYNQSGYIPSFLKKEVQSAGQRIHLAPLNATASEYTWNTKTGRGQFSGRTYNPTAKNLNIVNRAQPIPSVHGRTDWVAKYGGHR

[7] = molecular target: T3, kinases (KINOMEscan panel) (Homo sapiens, UniProt Q96PN8); conditions: kinase TSSK3; Published KINOMEscan; ref original PKIS2 published data; cited from earlier work
T3 sequence (Q96PN8 1-268): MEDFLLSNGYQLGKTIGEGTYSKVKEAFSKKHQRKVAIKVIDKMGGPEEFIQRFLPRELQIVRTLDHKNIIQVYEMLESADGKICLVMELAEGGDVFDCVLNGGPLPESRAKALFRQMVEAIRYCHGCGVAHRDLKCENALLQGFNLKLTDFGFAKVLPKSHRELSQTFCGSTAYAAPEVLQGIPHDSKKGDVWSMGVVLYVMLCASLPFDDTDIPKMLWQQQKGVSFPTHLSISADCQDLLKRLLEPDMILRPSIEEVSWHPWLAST

[8] = molecular target: kinases (KINOMEscan panel) (Homo sapiens, UniProt Q96RR4); conditions: CAMKK2; Published KINOMEscan; ref original PKIS2 published data; cited from earlier work
Sequence of kinases (KINOMEscan panel) (Homo sapiens, UniProt Q96RR4) (Q96RR4 whole entry): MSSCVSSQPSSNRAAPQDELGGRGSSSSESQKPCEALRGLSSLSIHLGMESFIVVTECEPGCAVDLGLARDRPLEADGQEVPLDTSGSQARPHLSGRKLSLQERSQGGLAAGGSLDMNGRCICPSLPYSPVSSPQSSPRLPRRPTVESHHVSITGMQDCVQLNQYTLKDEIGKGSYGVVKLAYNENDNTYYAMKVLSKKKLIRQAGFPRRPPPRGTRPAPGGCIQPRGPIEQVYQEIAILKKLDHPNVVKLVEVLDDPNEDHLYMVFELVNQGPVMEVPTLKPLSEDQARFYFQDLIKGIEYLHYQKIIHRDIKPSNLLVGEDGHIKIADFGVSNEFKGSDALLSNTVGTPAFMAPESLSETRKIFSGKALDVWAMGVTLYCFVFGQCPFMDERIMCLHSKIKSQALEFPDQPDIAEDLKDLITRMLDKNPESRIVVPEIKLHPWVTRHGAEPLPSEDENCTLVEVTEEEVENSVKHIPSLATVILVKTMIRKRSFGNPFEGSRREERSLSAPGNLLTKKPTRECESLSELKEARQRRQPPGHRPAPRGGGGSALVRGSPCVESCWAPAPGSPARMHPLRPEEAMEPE

[9] = molecular target: T4, kinases (KINOMEscan panel) (Homo sapiens, UniProt Q9UBE8); conditions: NLK; Published KINOMEscan; ref original PKIS2 published data; cited from earlier work
T4 sequence (Q9UBE8 1-527): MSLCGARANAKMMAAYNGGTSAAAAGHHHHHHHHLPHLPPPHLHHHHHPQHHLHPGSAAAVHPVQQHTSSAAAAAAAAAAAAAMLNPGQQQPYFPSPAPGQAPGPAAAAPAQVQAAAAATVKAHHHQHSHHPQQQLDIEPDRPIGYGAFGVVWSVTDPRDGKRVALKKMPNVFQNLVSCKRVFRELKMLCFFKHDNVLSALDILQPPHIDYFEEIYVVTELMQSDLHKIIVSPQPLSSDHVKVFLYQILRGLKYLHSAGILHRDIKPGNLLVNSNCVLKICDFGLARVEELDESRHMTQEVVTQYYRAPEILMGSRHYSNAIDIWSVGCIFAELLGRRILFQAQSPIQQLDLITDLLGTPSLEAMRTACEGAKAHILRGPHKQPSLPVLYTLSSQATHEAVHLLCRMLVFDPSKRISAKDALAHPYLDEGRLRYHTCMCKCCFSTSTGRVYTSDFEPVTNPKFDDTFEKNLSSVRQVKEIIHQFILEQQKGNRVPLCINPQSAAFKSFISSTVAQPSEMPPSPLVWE

In the case of `Cc1cccc(-c2nc(Nc3ccncc3)c3ccccc3n2)n1` [NK215], the “KINOMEscan RIOK3” value [1] is listed as 35, the “KINOMEscan RIPK2” value [2] is listed as 71 and the “KINOMEscan BUB1” value [3] is listed as 0. The “KINOMEscan OSXR1” value [4] was 0, the “KINOMEscan LYN” value [5] was 0 and the “KINOMEscan MAK” value [6] was 0. For the same compound, the “KINOMEscan TSSK3” value [7] was 0, the “KINOMEscan CAMKK2” value [8] was 7 and the “KINOMEscan NLK” value [9] was 47.
